According to US6274715A, “Tricyclic erythromycin derivatives” (priority 1997, dated 2001):
Values after ≈ are worked out from the molar mass of the structure shown.

Legend:
Type in all cases: cell-based
[1] = tested on: STAPHYLOCOCCUS AUREUS A5177; assay: In vitro antibacterial activity, MIC, BHI agar dilution; settings: S. aureus A5177, unit assumed
[2] = tested on: MYCOBACTERIUM SMEGMATIS ATCC 114; assay: as above; settings: M. smegmatis ATCC 114, unit assumed
[3] = tested on: STREPTOCOCCUS PYOGENES 930; assay: as above; settings: S. pyogenes 930, unit assumed
[4] = tested on: PSEUDOMONAS AERUGINOSA 5007; assay: as above; settings: P. aeruginosa 5007, unit assumed
[5] = tested on: PSEUDOMONAS AERUGINOSA DPHD-2862; assay: as above; settings: P. aeruginosa DPHD-2862, unit assumed
ESCHERICHIA COLI H560 = assay: as above; settings: E. coli H560, unit assumed
H. Influenza Dill AMP R = assay: In vitro antibacterial activity against H. Influenza Dill AMP R, MIC; settings: separate assay, unit assumed
Summary of the method: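 Agar dilution in Brain Heart Infusion agar, twelve successive compound dilutions, inoculated by Steers replicator with 1:100 (1:10 for slow growers) culture dilutions. Incubation 35-37° C. for 20 to 24 hours; MIC is lowest concentration giving no growth, slight haze or sparse colonies versus drug-free control.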

PSEUDOMONAS CEPACIA 296I = assay: In vitro antibacterial activity, MIC, BHI agar dilution; settings: P. cepacia 296I, unit assumed
[6] = tested on: STREPTOCOCCUS PYOGENES EES61; assay: as above; settings: S. pyogenes EES61, unit assumed
[7] = tested on: PSEUDOMONAS AERUGINOSA K799/61; assay: as above; settings: P. aeruginosa K799/61, unit assumed
[8] = tested on: STAPHYLOCOCCUS AUREUS A-5278; assay: as above; settings: S. aureus A-5278, unit assumed
ESCHERICHIA COLI JUHL = settings: E. coli JUHL; BHI agar; unit assumed
ESCHERICHIA COLI KNK 437 = settings: E. coli KNK 437; BHI agar; unit assumed
[9] = tested on: ENTEROBACTER AEROGENES ATCC 13048; assay: In vitro antibacterial activity, MIC, BHI agar dilution; settings: E. aerogenes ATCC 13048, unit assumed
[10] = tested on: STAPHYLOCOCCUS AUREUS ATCC 6538P; assay: as above; settings: S. aureus ATCC 6538P, 35-37° C., 20 to 24 hours, unit assumed
[11] = tested on: PSEUDOMONAS AERUGINOSA BMH10; assay: as above; settings: P. aeruginosa BMH10, unit assumed
[12] = tested on: PSEUDOMONAS AERUGINOSA K799/WT; assay: as above; settings: P. aeruginosa K799/WT, unit assumed
[13] = tested on: STAPHYLOCOCCUS AUREUS 1775; assay: as above; settings: S. aureus 1775, unit assumed
ESCHERICHIA COLI DC-2 = assay: as above; settings: E. coli DC-2, unit assumed
[14] = tested on: PROVIDENCIA STUARTII CMX 640; settings: P. stuartii CMX 640; BHI agar; unit assumed
[15] = tested on: STREPTOCOCCUS PYOGENES PIU 2548; assay: In vitro antibacterial activity, MIC, BHI agar dilution; settings: S. pyogenes PIU 2548, unit assumed
[16] = tested on: STAPHYLOCOCCUS AUREUS CMX 642A; assay: as above; settings: S. aureus CMX 642A, unit assumed
[17] = tested on: STAPHYLOCOCCUS EPIDERMIDIS 3519; settings: S. epidermidis 3519; BHI agar; unit assumed
[18] = tested on: STAPHYLOCOCCUS AUREUS NCTC10649M; assay: In vitro antibacterial activity, MIC, BHI agar dilution; settings: S. aureus NCTC10649M, unit assumed
[19] = tested on: KLEBSIELLA PNEUMONIAE ATCC 8045; assay: as above; settings: K. pneumoniae ATCC 8045, unit assumed
[20] = tested on: ACINETOBACTER CALCOACETICUS CMX 669; assay: as above; settings: A. calcoaceticus CMX 669, unit assumed
ESCHERICHIA COLI SS = assay: as above; settings: E. coli SS, unit assumed
M[…] ATCC 9341 = assay: as above; settings: M. luteus ATCC 9341, unit assumed
Summary of the method: (§1)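 MIC was read visually as the lowest drug level with no growth, a slight haze or sparsely isolated colonies relative to a compound-free growth control. Organisms were spotted at 1:100 dilution (1:10 for slow-growing strains) onto Brain Heart Infusion agar containing serial compound dilutions and incubated 20 to 24 hours at 35-37° C.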

M[…] ATCC 4698 = assay: as above; settings: M. luteus ATCC 4698, unit assumed
Summary of the method: as §1

EN[…] ATCC 8043 = assay: as above; settings: E. faecium ATCC 8043, unit assumed
Summary of the method: as §1

STR[…] 508 = assay: as above; settings: S. agalactiae CMX 508, unit assumed
Summary of the method: as §1

[21] = tested on: PSEUDOMONAS AERUGINOSA DPHD-5263; assay: as above; settings: P. aeruginosa DPHD-5263, unit assumed
[22] = tested on: STAPHYLOCOCCUS AUREUS CMX 553; assay: as above; settings: S. aureus CMX 553, unit assumed
[23] = tested on: STREPTOCOCCUS BOVIS A-5169; assay: as above; settings: S. bovis A-5169, unit assumed
CANDIDA ALBICANS CCH 442 = assay: as above; settings: C. albicans CCH 442, unit assumed

Compound | MIC [1] [µg/mL] | MIC [2] [µg/mL] | MIC [3] [µg/mL] | MIC [4] [µg/mL] | MIC [5] [µg/mL] | MIC (ESCHERICHIA COLI H560) [µg/mL] | MIC (H. Influenza Dill AMP R) [µg/mL] | MIC (PSEUDOMONAS CEPACIA 296I) [µg/mL] | MIC [6] [µg/mL] | MIC [7] [µg/mL] | MIC [8] [µg/mL] | MIC (ESCHERICHIA COLI JUHL) [µg/mL] | MIC (ESCHERICHIA COLI KNK 437) [µg/mL] | MIC [9] [µg/mL] | MIC [10] [µg/mL] | MIC [11] [µg/mL] | MIC [12] [µg/mL] | MIC [13] [µg/mL] | MIC (ESCHERICHIA COLI DC-2) [µg/mL] | MIC [14] [µg/mL] | further results
CC[C@H]1OC(=O)[C@H](C)C(=O)[C@H](C)[C@@H](O[C@@H]2O[C@H](C)C[C@H](N(C)C)[C@H]2O)[C@](C)(OC)C[C@@H](C)C2=N[C@H](COCc3cc(C)c4ccccc4n3)CN3C(=O)O[C@@]1(C)[C@H]3[C@H]2C [Example 83] | 0.2 (≈ 0.243 µM) | 0.39 (≈ 0.474 µM) | 100 (≈ 122 µM) | > 100 | > 100 | > 100 | 16 (≈ 19.4 µM) | 50 (≈ 60.8 µM) | 0.01 (≈ 0.0122 µM) | 6.2 (≈ 7.53 µM) | > 100 | > 100 | > 100 | > 100 | 0.2 (≈ 0.243 µM) | > 100 | > 100 | > 100 | > 100 | > 100 | MIC [15]: 0.39 µg/mL (≈ 0.474 µM); MIC [16]: 0.2 µg/mL (≈ 0.243 µM); MIC [17]: 0.39 µg/mL (≈ 0.474 µM); MIC [18]: 0.2 µg/mL (≈ 0.243 µM); MIC [19]: > 100 µg/mL; MIC [20]: 100 µg/mL (≈ 122 µM); MIC (ESCHERICHIA COLI SS): 1.56 µg/mL (≈ 1.9 µM); MIC (M[…] ATCC 9341): 0.05 µg/mL (≈ 0.0608 µM); MIC (M[…] ATCC 4698): 0.39 µg/mL (≈ 0.474 µM); MIC (EN[…] ATCC 8043): 0.05 µg/mL (≈ 0.0608 µM); MIC (STR[…] 508): 0.01 µg/mL (≈ 0.0122 µM); MIC [21]: > 100 µg/mL; MIC [22]: 0.2 µg/mL (≈ 0.243 µM); MIC [23]: 0.02 µg/mL (≈ 0.0243 µM); MIC (CANDIDA ALBICANS CCH 442): > 100 µg/mL
CC[C@H]1OC(=O)[C@H](C)C(=O)[C@H](C)[C@@H](O[C@@H]2O[C@H](C)C[C@H](N(C)C)[C@H]2O)[C@](C)(OC)C[C@@H](C)C2=N[C@H](CCOCc3ccccc3)CN3C(=O)O[C@@]1(C)[C@H]3[C@H]2C [Example 92] | 0.2 (≈ 0.259 µM) | 1.56 (≈ 2.02 µM) | 100 (≈ 130 µM) | > 100 | > 100 | > 100 | 32 (≈ 41.5 µM) | > 100 | 0.05 (≈ 0.0648 µM) | 6.2 (≈ 8.03 µM) | > 100 | > 100 | > 100 | > 100 | 0.39 (≈ 0.505 µM) | > 100 | > 100 | > 100 | > 100 | > 100 | MIC [15]: 0.39 µg/mL (≈ 0.505 µM); MIC [16]: 0.39 µg/mL (≈ 0.505 µM); MIC [17]: 0.39 µg/mL (≈ 0.505 µM); MIC [18]: 0.39 µg/mL (≈ 0.505 µM); MIC [19]: > 100 µg/mL; MIC [20]: > 100 µg/mL; MIC (ESCHERICHIA COLI SS): 1.56 µg/mL (≈ 2.02 µM); MIC (M[…] ATCC 9341): 0.05 µg/mL (≈ 0.0648 µM); MIC (M[…] ATCC 4698): 0.39 µg/mL (≈ 0.505 µM); MIC (EN[…] ATCC 8043): 0.1 µg/mL (≈ 0.13 µM); MIC (STR[…] 508): 0.05 µg/mL (≈ 0.0648 µM); MIC [21]: > 100 µg/mL; MIC [22]: 0.39 µg/mL (≈ 0.505 µM); MIC [23]: 0.05 µg/mL (≈ 0.0648 µM); MIC (CANDIDA ALBICANS CCH 442): > 100 µg/mL
